# Reference: US12435060B2, “Acylamino bridged heterocyclic compound, and composition and application thereof” (BEIJING SCITECH-MQ PHARMACEUTICALS LIMITED, priority 2019, dated 2025)
# Test system: HT29 cells
# Test: Inhibition of cell necrosis (CCK8 method), induced programmed necrosis of HT29 cells
# Type: cell-based
# Details: Homo sapiens, HT-29; rescue from necrosis induced by TNF-α 20 ng/mL, AT-406 1 μM, Z-VAD-FMK 20 μM; 16-20 hours; CCK-8, OD 450 nm
# Summary of the method: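 Rescue from programmed necrosis was scored by CCK-8 absorbance at 450 nm after 16-20 h of TNF-α (20 ng/mL), AT-406 (1 μM) and Z-VAD-FMK (20 μM) at 37 °C, 5% CO2. HT29 cells had received compound 30 min earlier across nine 4-fold dilutions (top 25000 nM final). IC50 came from % inhibition relative to uninduced and induced-only wells.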
row,SMILES,IC50 [nM]
1,"Cc1ccc(OCCCOC2CCC2)cc1-c1ccnc(NC(=O)c2nnc(Cc3ccccc3)[nH]2)c1 [Example 81, 5-benzyl-N-(4-(5-(3-cyclobutoxypropoxy)-2-methylphenyl)pyridin-2-yl)-4H-1,2,4-triazole-3-carboxamide]",≤ 100
2,"COc1ncc(C)cc1-c1ccnc(NC(=O)c2nnc(Cc3ccccc3)[nH]2)c1 [Example 50, 5-benzyl-N-(2-methoxy-5-methyl-[3,4′-bipyridin]-2′-yl)-4H-1,2,4-triazole-3-carboxamide]",1000 to 10000
3,"CC(C)(O)CCCOc1ccc(C(F)(F)F)c(-c2cc(NC(=O)c3nnc(CC4CCCCC4)[nH]3)ncn2)c1 [Example 453, 5-(cyclohexylmethyl)-N-(6-(5-((4-hydroxy-4-methylpentyl)oxy)-2-(trifluoromethyl)phenyl)pyrimidin-4-yl)-4H-1,2,4-triazole-3-carboxamide]",≤ 100
4,"COCCCOc1ccc(C(F)(F)F)c(-c2ccnc(NC(=O)c3nnc(Cc4ccccc4F)[nH]3)c2)c1 [Example 296, 5-(2-fluorobenzyl)-N-(4-(5-(3-methoxypropoxy)-2-(trifluoromethyl)phenyl)pyridin-2-yl)-4H-1,2,4-triazole-3-carboxamide]",≤ 100
5,"CC(C)(O)CCCOc1cc(F)c(Cl)c(-c2ccnc(NC(=O)c3nnc(Cc4ccccc4F)[nH]3)c2)c1 [Example 408, N-(4-(2-chloro-3-fluoro-5-((4-hydroxy-4-methylpentyl)oxy)phenyl)pyridin-2-yl)-5-(2-fluorobenzyl)-4H-1,2,4-triazole-3-carboxamide]",> 10000
6,"O=C(Nc1cc(-c2cc(OCCC3CCOCC3)ccc2F)ccn1)c1nnc(Cc2ccccc2F)[nH]1 [Example 316, N-(4-(2-fluoro-5-(2-(tetrahydro-2H-pyran-4-yl)ethoxy)phenyl)pyridin-2-yl)-5-(2-fluorobenzyl)-4H-1,2,4-triazole-3-carboxamide]",100 to 1000
7,"Cc1ccc(OCCCC(C)(C)O)cc1-c1ccnc(NC(=O)c2nnc(Cc3ccc(F)c(C(F)(F)F)c3)[nH]2)c1 [Example 212, 5-(4-fluoro-3-trifluoromethylbenzyl)-N-(4-(5-((4-hydroxy-4-methylpentyl)oxy)-2-methylphenyl)pyridin-2-yl)-4H-1,2,4-triazole-3-carboxamide]",100 to 1000
8,"Cc1ccc(C(=O)CC2CCOCC2)cc1-c1ccnc(NC(=O)c2nnc(CC3CCCC3)[nH]2)c1 [Example 486, 5-(cyclopentylmethyl)-N-(4-(2-methyl-5-(2-(tetrahydro-2H-pyran-4-yl)acetyl)phenyl)pyridin-2-yl)-4H-1,2,4-triazole-3-carboxamide]",≤ 100
9,"Cc1ccc(OCC(N)=O)cc1-c1ccnc(NC(=O)c2nnc(Cc3ccccc3)[nH]2)c1 [Example 116, N-(4-(5-(2-amino-2-oxoethoxy)-2-methylphenyl)pyridin-2-yl)-5-benzyl-4H-1,2,4-triazole-3-carboxamide]",100 to 1000
10,"Cc1ccc(OCCCC(C)(C)O)cc1-c1ccnc(NC(=O)c2nnc(Cc3ccccn3)[nH]2)c1 [Example 219, N-(4-(5-((4-hydroxy-4-methylpentyl)oxy)-2-methylphenyl)pyridin-2-yl)-5-(pyridin-2-ylmethyl)-4H-1,2,4-triazole-3-carboxamide]",≤ 100
11,"Cc1ccc(OCC2CCOCC2)cc1-c1ccnc(NC(=O)c2nnc(CC3CCCC3)[nH]2)c1 [Example 79, 5-(cyclopentylmethyl)-N-(4-(2-methyl-5-((tetrahydro-2H-pyran-4-yl)methoxy)phenyl)pyridin-2-yl)-4H-1,2,4-triazole-3-carboxamide]",≤ 100
12,"CC(C)(O)CCCOc1ccc(Cl)c(-c2cc(NC(=O)c3nnc(CC4CCCC4)[nH]3)ncn2)c1 [Example 464, 5-(cyclopentylmethyl)-N-(6-(2-chloro-5-((4-hydroxy-4-methylpentyl)oxy)phenyl)pyrimidin-4-yl)-4H-1,2,4-triazole-3-carboxamide]",≤ 100
13,"Cc1ccc(OCCOC(C)(C)C)cc1-c1ccnc(NC(=O)c2nnc(CC3CCCCC3)[nH]2)c1 [Example 77, N-(4-(5-(2-(tert-butoxy)ethoxy)-2-methylphenyl)pyridin-2-yl)-5-(cyclohexylmethyl)-4H-1,2,4-triazole-3-carboxamide]",≤ 100
14,"Cc1ccc(OCCCC(C)(C)O)cc1-c1cc(NC(=O)c2nnc(Cc3ccccc3F)[nH]2)ncc1F [Example 492, N-(5-fluoro-4-(5-((4-hydroxy-4-methylpentyl)oxy)-2-methylphenyl)pyridin-2-yl)-5-(2-fluorobenzyl)-4H-1,2,4-triazole-3-carboxamide]",≤ 100
15,"COCCOc1ccc(C(F)(F)F)c(-c2ccnc(NC(=O)c3nnc(CC4CCCC4)[nH]3)c2)c1 [Example 281, 5-(cyclopentylmethyl)-N-(4-(5-(2-methoxyethoxy)-2-(trifluoromethyl)phenyl)pyridin-2-yl)-4H-1,2,4-triazole-3-carboxamide]",≤ 100
16,"CC(C)(O)CCCOc1ccc(Cl)c(-c2ccnc(NC(=O)c3nnc(Cc4ccc(F)c(C(F)(F)F)c4)[nH]3)c2)c1 [Example 349, N-(4-(2-chloro-5-((4-hydroxy-4-methylpentyl)oxy)phenyl)pyridin-2-yl)-5-(4-fluoro-3-(trifluoromethyl)benzyl)-4H-1,2,4-triazole-3-carboxamide]",> 10000
17,"Cc1ccc(OCC2CCCO2)cc1-c1ccnc(NC(=O)c2nnc(Cc3ccccc3)[nH]2)c1 (stereo not drawn) [Example 121, 5-benzyl-N-(4-(2-methyl-5-((tetrahydrofuran-2-yl)methoxy)phenyl)pyridin-2-yl)-4H-1,2,4-triazole-3-carboxamide]",≤ 100
18,"Cc1ccc(OCCCC(C)(C)O)cc1-c1ccnc(NC(=O)c2nnc(Cc3cc(C(F)(F)F)ccc3F)[nH]2)c1 [Example 211, 5-(2-fluoro-5-trifluoromethylbenzyl)-N-(4-(5-((4-hydroxy-4-methylpentyl)oxy)-2-methylphenyl)pyridin-2-yl)-4H-1,2,4-triazole-3-carboxamide]",100 to 1000
19,"CCc1cc(-c2ccnc(NC(=O)c3nnc(Cc4ccccc4)[nH]3)c2)c(OC)cn1 [Example 63, 5-benzyl-N-(2′-ethyl-5′-methoxy-[4,4′-bipyridin]-2-yl)-4H-1,2,4-triazole-3-carboxamide]",1000 to 10000
20,"CC(C)(O)CCCOc1ccc(Cl)c(-c2ccnc(NC(=O)c3nnc(C(O)c4ccccc4F)[nH]3)c2)c1 (stereo not drawn) [Example 476, N-(4-(2-chloro-5-((4-hydroxy-4-methylpentyl)oxy)phenyl)pyridin-2-yl)-5-((2-fluorophenyl)(hydroxyl)methyl)-4H-1,2,4-triazole-3-carboxamide]",100 to 1000
21,"O=C(Nc1cc(-c2cc(OCC3CCOCC3)ccc2Cl)c(Cl)cn1)c1nnc(Cc2ccccc2F)[nH]1 [Example 424, N-(5-chloro-4-(2-chloro-5-((tetrahydro-2H-pyran-4-yl)methoxy)phenyl)pyridin-2-yl)-5-(2-fluorobenzyl)-4H-1,2,4-triazole-3-carboxamide]",100 to 1000
22,"COc1cc(Cc2nnc(C(=O)Nc3cc(-c4cc(OCCCC(C)(C)O)ccc4C)ccn3)[nH]2)ccc1F [Example 209, 5-(4-fluoro-3-methoxybenzyl)-N-(4-(5-((4-hydroxy-4-methylpentyl)oxy)-2-methylphenyl)pyridin-2-yl)-4H-1,2,4-triazole-3-carboxamide]",100 to 1000
23,"Cc1ccc(OCCC2CCOCC2)cc1-c1cc(NC(=O)c2nnc(CC3CCCC3)[nH]2)ncn1 [Example 447, 5-(cyclopentylmethyl)-N-(6-(2-methyl-5-(2-(tetrahydro-2H-pyran-4-yl)ethoxy)phenyl)pyrimidin-4-yl)-4H-1,2,4-triazole-3-carboxamide]",≤ 100
24,"CCC(O)(CC)CCCOc1ccc(C(F)(F)F)c(-c2ccnc(NC(=O)c3nnc(CC4CCCC4)[nH]3)c2)c1 [Example 262, 5-(cyclopentylmethyl)-N-(4-(5-((4-ethyl-4-hydroxyhexyl)oxy)-2-(trifluoromethyl)phenyl)pyridin-2-yl)-4H-1,2,4-triazole-3-carboxamide]",≤ 100
25,"Cc1c(F)cc(OCCCC(C)(C)O)cc1-c1ccnc(NC(=O)c2nnc(Cc3ccccc3F)[nH]2)c1 [Example 236, 5-(2-fluorobenzyl)-N-(4-(3-fluoro-5-((4-hydroxy-4-methylpentyl)oxy)-2-methylphenyl)pyridin-2-yl)-4H-1,2,4-triazole-3-carboxamide]",≤ 100
26,"CC(C)(O)CCCOc1ccc(Cl)c(-c2ccnc(NC(=O)c3nnc(Cc4cc(C5CC5)ccc4F)[nH]3)c2)c1 [Example 503, N-(4-(2-chloro-5-((4-hydroxy-4-methylpentyl)oxy)phenyl)pyridin-2-yl)-5-(5-cyclopropyl-2-fluorobenzyl)-4H-1,2,4-triazole-3-carboxamide]",1000 to 10000
27,"CC(C)(O)CCCOc1ccc(Cl)c(-c2ccnc(NC(=O)c3nnc(Cc4ccc(F)c(F)c4)[nH]3)c2)c1 [Example 339, N-(4-(2-chloro-5-((4-hydroxy-4-methylpentyl)oxy)phenyl)pyridin-2-yl)-5-(3,4-difluorobenzyl)-4H-1,2,4-triazole-3-carboxamide]",100 to 1000
28,"Cc1ccc(OCCCC(C)(C)O)cc1-c1ccnc(NC(=O)c2nnc(Cc3ccc(Cl)cc3)[nH]2)c1 [Example 189, 5-(4-chlorobenzyl)-N-(4-(5-((4-hydroxy-4-methylpentyl)oxy)-2-methylphenyl)pyridin-2-yl)-4H-1,2,4-triazole-3-carboxamide]",≤ 100
29,"Cc1ccc(OCCCC(C)(C)O)cc1-c1ccnc(NC(=O)c2nnc(CC3CC4CCC3C4)[nH]2)c1 (stereo not drawn) [Example 179, 5-(bicyclo[2.2.1]heptan-2-ylmethyl)-N-(4-(5-((4-hydroxy-4-methylpentyl)oxy)-2-methylphenyl)pyridin-2-yl)-4H-1,2,4-triazole-3-carboxamide]",≤ 100
30,"O=C(Nc1cc(-c2cc(OCC3CCOCC3)ccc2C(F)(F)F)ncn1)c1nnc(Cc2ccccc2F)[nH]1 [Example 455, 5-(2-fluorobenzyl)-N-(6-(5-((tetrahydro-2H-pyran-4-yl)methoxy)-2-(trifluoromethyl)phenyl)pyrimidin-4-yl)-4H-1,2,4-triazole-3-carboxamide]",≤ 100
